{"source": "patent US12247031B2", "about": "“Cyclobutyl pyrazolopyrimidine PDE9 inhibitors” (Merck Sharp & Dohme LLC, priority 2018, dated 2025)", "data": [{"biological_target": "Human PDE9 (PDE9A2) (Homo sapiens (Human), UniProt O76083)", "test": "PDE9 IMAP fluorescence polarization assay", "type": "biochemical", "conditions": "human PDE9A2, FAM-cGMP substrate 50 nM, IMAP FP, apparent inhibition constant", "experimental": "The activity of the compounds in accordance with the present invention as PDE9 inhibitors may be readily determined without undue experimentation using a fluorescence polarization (FP) methodology that is well known in the art (Huang, W., et al., J. Biomol Screen. 2002, 7: 215).\nIn a typical experiment the PDE9 inhibitory activity of the compounds of the present invention was determined in accordance with the following experimental method.\nHuman PDE9 (PDE9A2, GenBank Accession No. NM_001001567), full length with N-terminal GST tag, was purchased from BPS Bioscience. The fluorescence polarization assay for cyclic nucleotide phosphodiesterases was performed using an IMAP® FP kit supplied by Molecular Devices, Sunnyvale, CA (product #R8139). IMAP® technology has been applied previously to phosphodiesterase assays (Huang, W., et al., J. Biomol Screen. 2002, 7: 215).\nFluorescence polarization (mP) was calculated from the parallel (S) and perpendicular (P) fluorescence of each sample well and the analogous values for the median control well, containing only substrate (So and Po), using the following equation: Polarization (mP)=1000*(S/So−P/Po)/(S/So+P/Po).\nDose-inhibition profiles for each compound were characterized by fitting the mP data to a four-parameter equation given below. The apparent inhibition constant (KI), the maximum inhibition at the low plateau relative to “100% Inhibition Control” (Imax; e.g. 1=>same as this control), the minimum inhibition at the high plateau relative to the “0% Inhibition Control” (Imin, e.g. 0=>same as the no drug control) and the Hill slope (nH) are determined by a non-linear least squares fitting of the mP values as a function of dose of the compound using an in-house software based on the procedures described by Mosser et al., JALA. 2003, 8: 54-63, using the following equation: […]", "units": {"Ki": "nM"}, "values": [{"smiles": "Cc1nnc(C2CCC2c2nc3c(c(C#N)nn3C(C)c3ccc(C(F)(F)F)nc3)c(=O)[nH]2)o1", "note": "(single isomer, unassigned) [Example 1, 6-(2-(5-methyl-1,3,4-oxadiazol-2-yl)cyclobutyl)-4-oxo-1-(1-(6-(trifluoromethyl)pyridin-3-yl)ethyl)-4,5-dihydro-1H-pyrazolo[3,4-d]pyrimidine-3-carbonitrile]", "Ki": 28.9}, {"smiles": "Cc1nnc(C2CCC2c2nc3c(c(C#N)nn3C(C)c3ccc(C(F)(F)F)nc3)c(=O)[nH]2)o1", "note": "(single isomer, unassigned) [Example 2, 6-(2-(5-methyl-1,3,4-oxadiazol-2-yl)cyclobutyl)-4-oxo-1-(1-(6-(trifluoromethyl)pyridin-3-yl)ethyl)-4,5-dihydro-1H-pyrazolo[3,4-d]pyrimidine-3-carbonitrile]", "Ki": 118}, {"smiles": "Cc1nnc(C2CCC2c2nc3c(c(C#N)nn3C(C)c3ccc(C(F)(F)F)nc3)c(=O)[nH]2)o1", "note": "(single isomer, unassigned) [Example 3, 6-(2-(5-methyl-1,3,4-oxadiazol-2-yl)cyclobutyl)-4-oxo-1-(1-(6-(trifluoromethyl)pyridin-3-yl)ethyl)-4,5-dihydro-1H-pyrazolo[3,4-d]pyrimidine-3-carbonitrile]", "Ki": 221}, {"smiles": "Cc1nnc(C2CCC2c2nc3c(c(C#N)nn3C(C)c3ccc(C(F)(F)F)nc3)c(=O)[nH]2)o1", "note": "(single isomer, unassigned) [Example 4, 6-(2-(5-methyl-1,3,4-oxadiazol-2-yl)cyclobutyl)-4-oxo-1-(1-(6-(trifluoromethyl)pyridin-3-yl)ethyl)-4,5-dihydro-1H-pyrazolo[3,4-d]pyrimidine-3-carbonitrile]", "Ki": 229}, {"smiles": "Cc1nnc(C2CCC2c2nc3c(c(C#N)nn3C(C)c3ccc(C(F)(F)F)nc3)c(=O)[nH]2)o1", "note": "(single isomer, unassigned) [Example 5, 6-(2-(5-methyl-1,3,4-oxadiazol-2-yl)cyclobutyl)-4-oxo-1-(1-(6-(trifluoromethyl)pyridin-3-yl)ethyl)-4,5-dihydro-1H-pyrazolo[3,4-d]pyrimidine-3-carbonitrile]", "Ki": 35}, {"smiles": "Cc1nnc(C2CCC2c2nc3c(c(C#N)nn3C(C)c3ccc(C(F)(F)F)nc3)c(=O)[nH]2)o1", "note": "(single isomer, unassigned) [Example 6, 6-(2-(5-methyl-1,3,4-oxadiazol-2-yl)cyclobutyl)-4-oxo-1-(1-(6-(trifluoromethyl)pyridin-3-yl)ethyl)-4,5-dihydro-1H-pyrazolo[3,4-d]pyrimidine-3-carbonitrile]", "Ki": 42.7}, {"smiles": "Cc1nnc(C2CCC2c2nc3c(c(C#N)nn3C(C)c3ccc(C(F)(F)F)nc3)c(=O)[nH]2)o1", "note": "(single isomer, unassigned) [Example 7, 6-(2-(5-methyl-1,3,4-oxadiazol-2-yl)cyclobutyl)-4-oxo-1-(1-(6-(trifluoromethyl)pyridin-3-yl)ethyl)-4,5-dihydro-1H-pyrazolo[3,4-d]pyrimidine-3-carbonitrile]", "Ki": 167}, {"smiles": "C[C@@H](c1ccc(C(F)(F)F)nc1)n1nc(C#N)c2c(=O)[nH]c(C3CCC3c3ccccn3)nc21", "note": "(single isomer, unassigned) [Example 8]", "Ki": 0.034}, {"smiles": "C[C@@H](c1ccc(C(F)(F)F)nc1)n1nc(C#N)c2c(=O)[nH]c(C3CCC3c3ccccn3)nc21", "note": "(single isomer, unassigned) [Example 9]", "Ki": 2.72}, {"smiles": "C[C@@H](c1ccc(C(F)(F)F)nc1)n1nc(C#N)c2c(=O)[nH]c(C3CCC3c3ccc(F)cn3)nc21", "note": "(single isomer, unassigned) [Example 13]", "Ki": 608}, {"smiles": "C[C@@H](c1ccc(C(F)(F)F)nc1)n1nc(C#N)c2c(=O)[nH]c(C3CCC3c3ccc(F)cn3)nc21", "note": "(single isomer, unassigned) [Example 14]", "Ki": 0.12}, {"smiles": "C[C@@H](c1ccc(C(F)(F)F)nc1)n1nc(C#N)c2c(=O)[nH]c(C3CCC3c3ncccc3F)nc21", "note": "(single isomer, unassigned) [Example 15]", "Ki": 14.1}, {"smiles": "C[C@@H](c1ccc(C(F)(F)F)nc1)n1nc(C#N)c2c(=O)[nH]c(C3CCC3c3ncccc3F)nc21", "note": "(single isomer, unassigned) [Example 16]", "Ki": 0.461}]}]}
